Legend:
memapsin 1 = target: T1, memapsin 1 (Homo sapiens, UniProt Q9Y5Z0); assay: Inhibition of memapsin 1 catalytic activity (Ki); format: biochemical; settings: memapsin 1, pH 4.0, 37° C.; read-out: M1K
T1 sequence (Q9Y5Z0 63-518): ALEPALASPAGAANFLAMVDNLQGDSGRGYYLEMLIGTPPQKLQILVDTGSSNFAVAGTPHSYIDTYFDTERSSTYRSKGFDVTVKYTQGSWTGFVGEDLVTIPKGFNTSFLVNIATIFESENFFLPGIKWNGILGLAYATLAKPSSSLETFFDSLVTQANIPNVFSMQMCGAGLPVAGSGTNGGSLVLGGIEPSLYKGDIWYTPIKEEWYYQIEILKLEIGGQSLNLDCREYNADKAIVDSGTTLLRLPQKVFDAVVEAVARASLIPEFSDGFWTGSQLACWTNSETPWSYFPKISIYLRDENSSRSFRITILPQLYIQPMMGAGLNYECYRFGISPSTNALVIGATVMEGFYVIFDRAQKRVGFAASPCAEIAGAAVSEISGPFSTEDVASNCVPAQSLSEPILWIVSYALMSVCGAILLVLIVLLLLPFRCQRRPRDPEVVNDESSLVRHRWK
Procedure: A substrate peptide NH3-ELDLAVEFWHDR-CO2 (SEQ ID NO.:1) (used for inhibition assay of memapsin 2, memapsin 1, and cathepsin D) was dissolved at 2 mg/ml in DMSO and diluted 1:100 in 0.1 M sodium acetate, pH 4.0 just prior to assay. Inhibitor dissolved in DMSO was diluted into 0.1 M sodium acetate, pH 4.0 (1:100 dilution). A […] aliquot of the inhibitor solution in pH 4 buffer was combined with […] of 0.1 M sodium acetate containing 100-200 nM of memapsin 1, memapsin 2, or cathepsin D. Following a pre-incubation at 37° C., the proteolytic assay was initated by addition of […] of the substrate diluted into pH 4 buffer, and incubation continued at 37° C. Aliquots were removed at time intervals, and combined with an equal volume of MALDI-TOF matrix (α-hydroxycinnamic acid in acetone, 20 mg/ml) and immediately spotted in duplicate onto a stainless-steel MALDI sample plate. MALDI-TOF mass spectrometry was performed on a PE Biosystems Voyager DE instrument at the Molecular Biology Resource Center on campus. The instrument was operated at 25,000 accelerating volts in positive mode with a 150 ns delay. Ions with a mass-to-charge ratio (m/z) were detected in the range of 650-2000 atomic mass units. Data were analyzed by the Voyager Data Explorer module to obtain ion intensity data for mass species of substrates and corresponding products in a given mixture. Relative product formation was calculated as the ratio of signal intensity of the product to the sum of signal intensities of both product and the corresponding substrate. Relative product formed per unit time was obtained from non-linear regression analysis of the data representing the initial 15% formation of product using the model: 1−e^−kT, where k was the relative hydrolytic rate constant and T was time in seconds. Alternatively, relative hydrolytic rates were determined using a fluorogenic cleavage assay (Ermolieff, J. et al., Biochemistry, 39: 12450-12456 (2000)). Initial rates from either method were expressed relative to uninhibited controls and the inhibition constant Ki was determined by a non-linear fit to a tight-binding model of competitive inhibition (Bieth, J., Bayer-Symposium V: Proteinase Inhibitors, pp 463-469, Spinger-Varlag, Berlin (1994)). Results are shown in Table 1 above (M2K, CDK, and M1K columns represent, respectively, the K1 values obtained for memapsin 2, cathepsin D and memapsin 1).

memapsin 2 = memapsin 2 (Homo sapiens, UniProt P56817); assay: Inhibition of memapsin 2 catalytic activity (Ki); format: biochemical; settings: memapsin 2, pH 4, 37° C.; read-out: M2K
memapsin 2, sequence (P56817 46-501): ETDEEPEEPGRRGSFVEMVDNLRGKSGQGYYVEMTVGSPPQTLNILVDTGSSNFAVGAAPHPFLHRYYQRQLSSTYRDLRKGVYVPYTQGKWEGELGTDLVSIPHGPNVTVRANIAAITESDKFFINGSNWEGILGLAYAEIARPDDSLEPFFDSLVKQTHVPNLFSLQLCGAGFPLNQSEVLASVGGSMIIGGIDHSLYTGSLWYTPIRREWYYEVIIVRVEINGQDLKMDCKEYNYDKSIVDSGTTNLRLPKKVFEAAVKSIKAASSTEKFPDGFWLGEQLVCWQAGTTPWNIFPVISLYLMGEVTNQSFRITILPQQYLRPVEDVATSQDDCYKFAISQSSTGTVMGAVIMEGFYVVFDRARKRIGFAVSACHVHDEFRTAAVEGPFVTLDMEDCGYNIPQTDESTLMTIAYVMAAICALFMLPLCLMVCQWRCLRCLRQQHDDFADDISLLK
Summary of the method: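 Run at 37 °C and pH 4: compound and enzyme pre-incubated 20 min before FS-2 fluorogenic substrate started hydrolysis,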

[1] = system: Aβ production in Chinese hamster ovary cells that over-express human APP695 with the London and Swedish mutations; assay: Cellular Aβ IC50 determination (Aβ40 sandwich ELISA); settings: Cricetulus griseus, CHO, 24 h, read-out: Cell, Aβ40, CHO cells over-expressing human APP695 (London and Swedish mutations), 24 h
cathepsin D = cathepsin D (Homo sapiens, UniProt P07339); assay: Inhibition of cathepsin D catalytic activity (Ki); format: biochemical; settings: pH 4.0, 37° C., read-out: CDK
cathepsin D, sequence (P07339 65-412, species assumed): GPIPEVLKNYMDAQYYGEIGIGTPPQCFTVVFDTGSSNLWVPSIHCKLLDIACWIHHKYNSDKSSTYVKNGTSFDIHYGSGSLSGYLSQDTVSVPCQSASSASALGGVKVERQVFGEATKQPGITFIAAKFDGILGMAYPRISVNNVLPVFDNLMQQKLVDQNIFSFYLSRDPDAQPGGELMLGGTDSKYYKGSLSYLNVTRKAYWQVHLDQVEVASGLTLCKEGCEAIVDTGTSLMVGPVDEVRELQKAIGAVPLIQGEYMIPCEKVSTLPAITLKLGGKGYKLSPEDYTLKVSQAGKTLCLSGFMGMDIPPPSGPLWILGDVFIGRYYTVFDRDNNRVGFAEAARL

| Ki (memapsin 1) [nM] | Ki (memapsin 2) [nM] | IC50 [1] [nM] | Ki (cathepsin D) [nM] | Compound |
| --- | --- | --- | --- | --- |
| < 300 | > 501 | 1000 to 5000 | > 501 | Cc1csc(CN(C)C(=O)c2cccc(C(=O)NC(Cc3ccccc3)C(O)CNC(C)c3ccccc3)c2)n1 (stereo not shown) [N1-(3-hydroxy-1-phenyl-4-(1-phenylethylamino)butan-2-yl)-N3-methyl-N3-((4-methylthiazol-2-yl)methyl)isophthalamide] |
| > 501 | > 501 | 1000 to 5000 | < 300 | CCC(NCC(O)C(Cc1ccccc1)NC(=O)c1cccc(C(=O)N(C)Cc2nc(C)cs2)c1)c1ccccc1 (stereo not shown) [N1-(3-hydroxy-1-phenyl-4-(1-phenylpropylamino)butan-2-yl)-N3-methyl-N3-((4-methylthiazol-2-yl)methyl)isophthalamide] |
| 301 to 500 | < 300 | < 1000 | > 501 | CC(NC(=O)c1cc(C(=O)NC(Cc2ccccc2)C(O)CNCc2cccnc2)cc(N(C)S(C)(=O)=O)c1)c1ccccc1 (stereo not shown) [N1-(3-hydroxy-1-phenyl-4-(pyridin-3-ylmethylamino)butan-2-yl)-5-(N-methylmethylsulfonamido)-N3-(1-phenylethyl)isophthalamide] |
| < 300 | < 300 | < 1000 | < 300 | COc1cccc(C(C)NCC(O)C(Cc2ccccc2)NC(=O)c2cc(C(=O)NC(C)c3ccccc3)cc(N(C)S(C)(=O)=O)c2)c1 (stereo not shown) [N1-(3-hydroxy-4-(1-(3-methoxyphenyl)ethylamino)-1-phenylbutan-2-yl)-5-(N-methylmethylsulfonamido)-N3-(1-phenylethyl)isophthalamide] |

Second part, the compound before the results:

| Compound | Ki (memapsin 1) [nM] | Ki (memapsin 2) [nM] | IC50 [1] [nM] | Ki (cathepsin D) [nM] |
| --- | --- | --- | --- | --- |
| COc1cccc(CNCC(O)C(Cc2ccccc2)NC(=O)c2cc(C(=O)NC(C)c3ccc(F)cc3)cc(N(C)S(C)(=O)=O)c2)c1 (stereo not shown) [N1-(1-(4-fluorophenyl)ethyl)-N3-(3-hydroxy-4-(3-methoxybenzylamino)-1-phenylbutan-2-yl)-5-(N-methylmethylsulfonamido)isophthalamide] | < 300 | < 300 | < 1000 | < 300 |
| CC(NCC(O)C(Cc1ccccc1)NC(=O)c1cc(C(=O)NC(C)c2ccccc2)cc(N(C)S(C)(=O)=O)c1)c1ccccc1 (stereo not shown) [N1-(3-hydroxy-1-phenyl-4-(1-phenylethylamino)butan-2-yl)-5-(N-methylmethylsulfonamido)-N3-(1-phenylethyl)isophthalamide] | 301 to 500 | < 300 | < 1000 | < 300 |
| CCC(NCC(O)C(Cc1ccccc1)NC(=O)c1cc(C(=O)NC(C)c2ccccc2)cc(N(C)S(C)(=O)=O)c1)c1ccccc1 (stereo not shown) [N1-(3-hydroxy-1-phenyl-4-(1-phenylpropylamino)butan-2-yl)-5-(N-methylmethylsulfonamido)-N3-(1-phenylethyl)isophthalamide] | < 300 | < 300 | < 1000 | < 300 |
| Cc1csc(CN(C)C(=O)c2cccc(C(=O)NC(Cc3ccccc3)C(O)CNCc3cccc(C(F)(F)F)c3)c2)n1 (stereo not shown) [N1-(3-hydroxy-1-phenyl-4-(3-(trifluoromethyl)benzylamino)butan-2-yl)-N3-methyl-N3-((4-methylthiazol-2-yl)methyl)isophthalamide] | > 501 | < 300 | < 1000 | < 300 |
| CC(NC(=O)c1cc(C(=O)NC(Cc2ccccc2)C(O)CNCc2ccccn2)cc(N(C)S(C)(=O)=O)c1)c1ccccc1 (stereo not shown) [N1-(3-hydroxy-1-phenyl-4-(pyridin-2-ylmethylamino)butan-2-yl)-5-(N-methylmethylsulfonamido)-N3-(1-phenylethyl)isophthalamide] | > 501 | < 300 | < 1000 | > 501 |
| CC(NC(=O)c1cc(C(=O)NC(Cc2ccccc2)C(O)CNCc2ccncc2)cc(N(C)S(C)(=O)=O)c1)c1ccccc1 (stereo not shown) [N1-(3-hydroxy-1-phenyl-4-(pyridin-4-ylmethylamino)butan-2-yl)-5-(N-methylmethylsulfonamido)-N3-(1-phenylethyl)isophthalamide] | 301 to 500 | < 300 | < 1000 | > 501 |

— patent US7504420B2, “Compounds which inhibit beta-secretase activity and methods of use” (CoMentis, Inc., priority 2005, dated 2009)
